The source of these data is article PMC11157767 (Molecular Cancer, 2024).

The test system of assay [1] is pMET, pErk, pAkt. Briefly: Phosphoprotein IHC/western blot in TFG-MET allograft tumors (PD and Survival cohort). The format is in vivo, mouse. As to conditions: for levels of phosphorylated MET, Erk and Akt in initial neoplasms: PD cohort, after second treatment, vs vehicle.
Method: Error bars display standard error of the mean. Statistical significance was determined using a One-Way ANOVA followed by Tukey’s multiple comparisons test (*p<0.05, **p<0.01, ***p<0.001, ****p<0.0001)
All treatments started 1 week after transplantation. Radio therapy was administered for 6 days, delivering 12 Gy total. Compound treatment was continued for 84 days. […] N = 8 (vehicle arms) or n = 10 (compound-treated arms), respectively.
Assay [2] concerns murine TFG-MET tumor cells. The experiment in a line: cells. The settings on record: Mus musculus.
From the text: To calculate unbound EC50 and EC90 values, total values were multiplied with unbound drug fractions in culture media (Table 1).

Like-named read-outs stand apart in the source and are kept apart here.

With `CNC(=O)c1ccc(-c2cnc3ncc(Cc4ccc5ncccc5c4)n3n2)cc1F` [Capmatinib], the “levels of phosphorylated MET, Erk and Akt in initial neoplasms” value in assay [1] was “greatly reduced levels”. Also, the “animals with pMET and pErk reduced to background levels” value in assay [1] (Survival cohort, sacrificed under treatment) is 4/6. The EC90 worked out at 29.9 nM in assay [2] (read-out: EC90 (nM) Total) and 21.1 nM in assay [2] (read-out: EC90 (nM) Unbound*).
On to `C[C@@H](Oc1cc(-c2cnn(C3CCNCC3)c2)cnc1N)c1c(Cl)ccc(F)c1Cl` [Crizotinib], for which the “levels of phosphorylated MET, Erk and Akt in initial neoplasms” value in assay [1] is on record as “less complete reduction”. The results for the EC50 in assay [2] (read-out: EC50 (nM) Total) and in assay [2] (read-out: EC50 (nM) Unbound*) were 124 nM and 76.2 nM, respectively. The EC90 was 612 nM in assay [2] (read-out: EC90 (nM) Total) and 378 nM in assay [2] (read-out: EC90 (nM) Unbound*). In addition, in assay [2] (read-out: in vitro IC50), the IC50 turned out to be 124 nM.

As usually defined, the EC90 is the concentration at which the effect reaches the 90% level. For orientation: EC50 means the midpoint of the concentration-response curve. A word on the IC50: it is the point on the concentration scale where inhibition reaches its midpoint.
